Values quoted from earlier work, collected in patent publication US11160278B2, “Use of active substances for controlling virus infection in plants” (Bayer CropScience Aktiengesellschaft, priority 2016, dated 2021).

Key:
[1] = test system: tobacco mosaic virus (TMV); conditions: also NahG transgenic tobacco
[2] = test system: Pseudomonas syringae pv tabaci

COC(=O)N(OC)c1ccccc1COc1ccn(-c2ccc(Cl)cc2)n1 [Pyraclostrobin]
resistance of tobacco against infection by TMV [1]: enhance the resistance | resistance of tobacco against infection by Pseudomonas syringae pv tabaci [2]: enhance the resistance
